In patent US7259142B2, “Redox-stable, non-phosphorylated cyclic peptide inhibitors of SH2 domain binding to target protein, conjugates thereof, compositions and methods of synthesis and use” (The United States of America, represented by the Secretary, …, priority 1999, dated 2007):
Like-named read-outs stand apart in the source and are kept apart here. Where a SMILES comes first, the peptide text is derived from it. Bridges are numbered along the chain shown (N, C = ends). Where no end group is shown, it is not given here. [ ]: non-standard residue; d: D form. pY = N[C@@H](Cc1ccc(OP(=O)(O)O)cc1)C(=O)O; Gla = N[C@@H](CC(C(=O)O)C(=O)O)C(=O)O

Experiments:
[1] = biological target: recombinant GST-Grb2 SH2 protein (Homo sapiens, UniProt P62993); assay: Biacore Surface Plasmon Resonance competitive binding assay against immobilized SHC(pTyr-317)-9-mer phosphopeptide; details: Biacore SPR, GST-Grb2-SH2 150-250 nM, PBS pH 7.4; mean of at least two independent experiments; read-out: IC50 (concentration at which half-maximal competition was observed)
Procedure: The competitive binding affinity of the present inventive compounds was assessed using Biacore Surface Plasmon Resonance (SPR) methods utilizing a Biacore 2000 instrument. The concentrations at which half-maximal competition was observed (IC50) were determined by mixing the inhibitor with recombinant GST-Grb2 SH2 protein and measuring the amount of competitive binding at equilibrium to an immobilized (via biotin conjugation to streptavidin coated surface of the Biacore sensor chip SA; 2 nM concentration) SHC(pTyr-317)-9-mer phosphopeptide in a manner similar to that reported previously (Oligino et al. (1997), supra). Specifically, competitive binding assays were carried out at 5 μl/min flow rate, with GST-Grb2-SH2 (150-250 nM) and a cyclic peptide inhibitor (10 nM-2 mM) in phosphate-buffered saline (PBS), pH 7.4, containing 0.01% P-20 surfactant (Biacore, Inc., Piscataway, N.J.) for a total of 10 min. The change in response units (RU) at equilibrium was measured from the absorption profiles and the percent of control (no added peptide) was calculated. […] The results represent the mean value of at least two independent experiments.

[2] = biological target: T1, p185^erbB-2 receptor association with the Grb2 adapter protein (MDA-MB-453 cell lysates) (Homo sapiens, UniProt P62993); assay: Inhibition of p185erbB-2 interaction with Grb2 in cell homogenates (anti-Grb2 immunoprecipitation, anti-pTyr Western blot); assay type: biochemical
T1 construct: endogenous in cells; host or cells: MDA-MB-453 breast cancer cells
Procedure: Cell lysates were prepared from the serum-treated erbB-2-overexpressing breast cancer cell line MDA-MB-453 using 1% Triton X-100 in PBS containing 0.2 mM NaVO4. Lysates were incubated with the present inventive cyclic peptide inhibitors specified in Example 1 and Example 12, at concentrations of 0.1, 0.4, 2, 10 and 50 μM. No inhibitor was used as a control. Cell lysates were prepared using 1% Triton X-100 in PBS containing 0.2 mM NaVO4. Grb2 and associated Grb2-binding proteins were immunoprecipitated from each lysate (500 μg) with anti-Grb2 antibodies and collected using protein A Sepharose using methods previously described. Immunoprecipitated proteins were separated by SDS-PAGE on 8-16% gradient gels (Novex). pTyr-containing proteins were detected by Western blotting using anti-phosphotyrosine antibodies (Upstate Biotechnology Inc.). Previous experiments have shown that a major tyrosine phosphorylated protein in MDA-MB-453 cells is p185^erbB-2, which is overexpressed as a consequence of gene amplification. […] A dose-dependent inhibition of the p185^erbB-2 receptor association with the Grb2 adapter protein was observed.

[3] = biological target: T2, p185^erbB-2/Grb2 association in MDA-MB-453 cells (Homo sapiens, UniProt P62993); assay: Inhibition of intracellular p185erbB-2/Grb2 association in whole MDA-MB-453 cells; assay type: cell-based; details: for concentration of effective inhibition of p185erbB-2/Grb2 association in cells: whole MDA-MB-453 cells treated 3 hrs in serum-free IMEM, inhibitor 0.1-50 μM
T2 construct: endogenous in cells; host or cells: MDA-MB-453 breast cancer cells
Procedure: The compound of Example 1, and the conjugate of Example 12, were tested in MDA-MB-453 cells (breast cancer cells that overexpress p185^erbB-2 receptor) at inhibitor concentrations of 0.1, 0.4, 2, 10 and 50 μM. In the control experiment, no inhibitor was used. The cells were treated for 3 hrs in serum-free IMEM medium. The cells were washed twice with ice-cold PBS to remove the residual inhibitory compound that was not internalized.
Cell lysates were prepared using 1% Triton X-100 in PBS containing 0.2 mM NaVO4. Grb2 and associated Grb2-binding proteins were immunoprecipitated from each lysate (500 μg) with anti-Grb2 antibodies and collected using protein A Sepharose using methods previously described. Immunoprecipitated proteins were separated by SDS-PAGE on 8-16% gradient gels (Novex). pTyr-containing proteins were detected by Western blotting using anti-phosphotyrosine antibodies (Upstate Biotechnology Inc.). Previous experiments have shown that a major tyrosine phosphorylated protein in MDA-MB-453 cells is p185^erbB-2, which is overexpressed as a consequence of gene amplification.
In these whole cell assays the agents were applied to the cell culture media of MDA-MB-453 cells. These conditions required that compounds transit through the cell membrane.

SH2 domain of Grb2 = SH2 domain of Grb2 (Homo sapiens, UniProt P62993); details: background, previously reported values; read-out: IC50 (receptor affinity); cited from earlier work
SH2 domain of Grb2, sequence (P62993 60-152 limits assumed): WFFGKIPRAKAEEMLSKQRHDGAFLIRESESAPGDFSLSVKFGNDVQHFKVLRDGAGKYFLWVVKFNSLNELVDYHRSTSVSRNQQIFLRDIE

T2 sequence (P62993 whole entry): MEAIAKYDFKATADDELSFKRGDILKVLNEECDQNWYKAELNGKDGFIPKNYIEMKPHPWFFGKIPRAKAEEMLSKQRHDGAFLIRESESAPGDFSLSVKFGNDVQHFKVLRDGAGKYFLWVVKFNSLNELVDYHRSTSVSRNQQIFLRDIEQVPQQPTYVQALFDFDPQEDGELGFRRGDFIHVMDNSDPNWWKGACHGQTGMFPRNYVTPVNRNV
T1 sequence (P62993 whole entry): as above
recombinant GST-Grb2 SH2 protein, sequence (P62993 60-152 limits assumed): as the sequence (P62993 60-152 limits assumed) above

Compound | IC50 [1] | IC50 ([2]; MDA-MB-453 cell lysates, inhibitor 0.1-50 μM, read-out: half-maximal inhibition of p185erbB-2/Grb2 protein association) | concentration of effective inhibition of p185erbB-2/Grb2 association in cells [3] | IC50 [2] | reduction in the associated p185erbB-2 bound to Grb2 in cells ([3]; whole MDA-MB-453 cells pre-treated with increasing amounts) | IC50 (SH2 domain of Grb2)
CSCC[C@@H]1NC(=O)CNC(=O)[C@H](C(C)C)NC(=O)[C@H](CC(N)=O)NC(=O)[C@H](CCC(=O)O)NC(=O)[C@H](Cc2ccc(O)cc2)NC(=O)[C@H](CC(C)C)NC(=O)[C@H](CC(C(=O)O)C(=O)O)NC(=O)CSC[C@@H](C(N)=O)NC(=O)[C@H](Cc2ccc(O)cc2)NC1=O [Example 1, cyclo(CH2CO-Gla^1-Leu^2-Tyr^3-Glu^4-Asn^5-Val^6-Gly^7-Met^8-Tyr^9-Cys)-amide] ({CH2CO}-[Gla]LYENVGMYC-NH2; thioether N-10) | 640 ± 100 nM | 2000 nM | 50 µM |  |  | 
CSCC[C@@H]1NC(=O)CNC(=O)[C@H](C(C)C)NC(=O)[C@H](CC(N)=O)NC(=O)[C@H](CCC(=O)O)NC(=O)[C@H](Cc2ccc(O)cc2)NC(=O)[C@H](CC(C)C)NC(=O)[C@H](CC(C(=O)O)C(=O)O)NC(=O)CSC[C@@H](C(=O)N[C@@H](C)C(=O)N[C@@H](C)C(=O)N[C@H](C(=O)N[C@@H](C)C(=O)N[C@@H](CC(C)C)C(=O)N[C@@H](CC(C)C)C(=O)N2CCC[C@H]2C(=O)N[C@@H](C)C(=O)N[C@H](C(=O)N[C@@H](CC(C)C)C(=O)N[C@@H](CC(C)C)C(=O)N[C@@H](C)C(=O)N[C@@H](CC(C)C)C(=O)N[C@@H](CC(C)C)C(=O)N[C@@H](C)C(=O)N2CCC[C@H]2C(N)=O)C(C)C)C(C)C)NC(=O)[C@H](Cc2ccc(O)cc2)NC1=O [Example 12, cyclo(CH2CO-Gla^1-Leu^2-Tyr^3-Glu^4-Asn^5-Val^6-Gly^7-Met^8-Tyr^9-Cys)-NH-Ala-Ala-Val-Ala-Leu-Leu-Pro-Ala-Val-Leu-Leu-Ala-Leu-Leu-Ala-Pro] ({CH2CO}-[Gla]LYENVGMYCAAVALLPAVLLALLAP-NH2; thioether N-10) |  |  | 2 µM | 2000 nM | clear dose-dependent reduction | 
SHC(pY^317)-9-mer: segment of the naturally phosphorylated ligand (DDPS[pY]VNVQ) |  |  |  |  |  | 1000 nM
